# Experimental data taken from ChEMBL document CHEMBL3886540, “Orally available viridiofungin derivative possessing anti-HCV activity” (2016).
# Assays:
# Cytochrome P450 3A4 [1] = biological target: T1, Cytochrome P450 3A4 (Homo sapiens, UniProt P08684); test: (§1) CYP Inhibition Assay (Without Preincubation): Without Preincubation: To a 96 deep well plate was added 2.5 uL, of the test substance solution (x200 concentration), 442.5 uL of Incubation Mixture, and 5 uL of the substrate solution, and the solution was mixed and warmed to 37° C. for 5 minutes. To this incubation solution 50 uL of 10 mM NADPH was added to start the reaction, and incubated at 37° C. for 5 minutes. After the incubation, 100 uL of the Incubation Mixture was removed, added to 150 uL of isopropanol containing IS and mixed. […] The filtrate was used for LC-MS/MS analysis.
# Cytochrome P450 2C9 [2] = biological target: T2, Cytochrome P450 2C9 (Homo sapiens, UniProt P11712); test: as §1
# Cytochrome P450 3A4 [3] = biological target: T1, Cytochrome P450 3A4; test: (§2) CYP Inhibition Assay (With Preincubation): With Preincubation: To a 96 deep well plate was added 2.5 uL of the test substance solution (x200 concentration), and 442.5 uL of Incubation Mixture, and the solution was mixed and warmed to 37° C. for 5 minutes. To this incubation solution 50 uL of 10 mM NADPH was added and preincubated at 37° C. for 30 minutes. […] After the reaction, 100 uL of the Incubation Mixture was removed, added to 150 uL of isopropanol containing IS and mixed. […] The filtrate was used for LC-MS/MS analysis.
# Cytochrome P450 2C9 [4] = biological target: T2, Cytochrome P450 2C9; test: as §2
# T2 sequence (P11712 whole entry): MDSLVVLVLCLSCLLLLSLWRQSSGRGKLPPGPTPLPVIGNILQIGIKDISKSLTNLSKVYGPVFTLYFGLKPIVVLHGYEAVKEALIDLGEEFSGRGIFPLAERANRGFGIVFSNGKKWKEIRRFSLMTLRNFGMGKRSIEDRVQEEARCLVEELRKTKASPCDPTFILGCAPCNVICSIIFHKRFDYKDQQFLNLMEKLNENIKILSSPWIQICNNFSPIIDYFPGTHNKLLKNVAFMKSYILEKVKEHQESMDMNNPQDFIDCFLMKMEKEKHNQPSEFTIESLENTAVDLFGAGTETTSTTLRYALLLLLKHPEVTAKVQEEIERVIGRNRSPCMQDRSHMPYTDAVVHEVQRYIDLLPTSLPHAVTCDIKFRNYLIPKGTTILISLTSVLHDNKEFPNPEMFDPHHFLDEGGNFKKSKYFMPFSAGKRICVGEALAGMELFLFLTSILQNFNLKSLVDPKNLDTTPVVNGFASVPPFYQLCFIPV
# T1 sequence (P08684 whole entry): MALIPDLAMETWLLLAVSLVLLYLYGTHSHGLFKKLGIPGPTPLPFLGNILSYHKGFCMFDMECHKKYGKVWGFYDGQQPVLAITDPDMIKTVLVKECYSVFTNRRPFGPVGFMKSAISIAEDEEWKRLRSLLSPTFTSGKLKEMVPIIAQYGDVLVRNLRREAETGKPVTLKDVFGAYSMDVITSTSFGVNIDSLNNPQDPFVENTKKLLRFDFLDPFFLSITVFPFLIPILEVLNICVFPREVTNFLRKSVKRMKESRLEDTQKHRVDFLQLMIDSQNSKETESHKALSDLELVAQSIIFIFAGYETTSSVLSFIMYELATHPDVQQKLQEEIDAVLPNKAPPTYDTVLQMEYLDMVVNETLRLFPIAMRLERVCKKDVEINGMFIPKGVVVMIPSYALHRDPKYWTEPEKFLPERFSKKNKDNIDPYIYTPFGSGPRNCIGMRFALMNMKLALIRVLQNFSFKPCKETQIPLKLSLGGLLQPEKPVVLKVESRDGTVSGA
IC50 (Cytochrome P450 3A4 [1]) [µM],IC50 (Cytochrome P450 2C9 [2]) [µM],IC50 (Cytochrome P450 3A4 [3]) [µM],IC50 (Cytochrome P450 2C9 [4]) [µM],SMILES
16.2,12.5,11.8,24.4,CCCCCCCC(F)(F)CCCCCC/C=C/[C@H](C(O)N[C@@H](Cc1ccc(OCCCC)cc1)C(=O)O)[C@@](O)(CCOC)C(=O)O (stereo partly drawn)
23.8,7.7,11.9,19.6,CCCCCCCC(F)(F)CCCCCC/C=C/[C@H](C(O)N[C@@H](Cc1ccc(OCCCC)cc1)C(=O)OC)[C@@](O)(CCOC)C(=O)O (stereo partly drawn)
